Data: patent US8017656B2, “Organic sulfur compounds and use thereof” (Sumitomo Chemical Company, Limited, priority 2005, dated 2011)
Where two headings read alike, the source gives them in different places.

How the values were obtained:
Format in all cases: in vivo
[1] = test system: Blattella germanica; assay: Test Example 3: filter paper/sucrose bait test against German cockroach imagoes; settings: Blattella germanica, 144 h, read-out: rate of dead pests
Procedure: (§1) On the bottom of a polyethylene cup having a diameter of 5.5 cm, a filter paper having the same diameter was laid, and 0.7 ml of the above test solution was added dropwise on the filter paper, followed by putting 30 mg of sucrose on it uniformly as a bait. Two male Blattella germanica imagoes were set free in the polyethylene cup and covered it with a lid. After 6 days, the number of surviving and dead Blattella germanica was examined and the rate of dead pests was calculated.

[2] = test system: Culex pipiens pallens; assay: Test Example 4: mosquito larvae test in treated water; settings: 24 h, read-out: rate of dead pests
Procedure: 0.7 ml of above test solution was added to 100 ml of ion exchanged water (active ingredient concentration: 3.5 ppm). Twenty last-instar larvae of Culex pipiens pallens were set free in the solution. After one day, the number of surviving and dead Culex pipiens pallens was examined and the rate of dead pests was calculated.

[3] = test system: Musca domestica; assay: Test Example 2: filter paper/sucrose bait test against housefly imagoes; settings: read-out: rate of dead pests
Procedure: as §1, with “Ten female Musca domestica” for “Two male Blattella germanica”, “24 hours,” for “6 days,”, “Musca domestica” for “Blattella germanica”

[4] = 500 ppm test solution, 0.7 ml on filter paper with 30 mg sucrose, two male imagoes, after 6 days
[5] = active ingredient concentration 3.5 ppm in water, twenty last-instar larvae, after one day
[6] = 500 ppm test solution, 0.7 ml on filter paper with 30 mg sucrose, ten female imagoes, after 24 hours

| Compound | pest or weed control at 500 ppm [1, 4] [%] | pest or weed control at 3.5 ppm [2, 5] [%] | pest or weed control at 500 ppm [3, 6] [%] | also measured |
| --- | --- | --- | --- | --- |
| NC(=O)C(F)(CCC(F)(F)C(F)(F)C(F)(F)F)S(=O)(=O)CCC(F)(F)F (stereo not shown) [(91)] | – | – | – | pest or weed control at 500 ppm [1]: 100%; pest or weed control at 3.5 ppm [2]: ≥ 90%; pest or weed control at 500 ppm ([3]; 24 h): ≥ 70% |
| COC(=O)C(C)(CCC(F)(F)C(F)(F)C(F)(F)F)S(=O)(=O)CCC(F)(F)C(F)(F)F (stereo not shown) [(52)] | – | – | – | pest or weed control at 500 ppm [1]: 100%; pest or weed control at 3.5 ppm [2]: ≥ 90%; pest or weed control at 500 ppm ([3]; 24 h): ≥ 70% |
| NC(=O)C(Cl)(CCC(F)(F)C(F)(F)F)S(=O)(=O)CCC(F)(F)C(F)(F)F (stereo not shown) [(89)] | 100 | ≥ 90 | ≥ 70 | – |
| N#CC(Cl)(CCC(F)(F)C(F)(F)F)S(=O)(=O)CCC(F)(F)F (stereo not shown) [(21)] | 100 | ≥ 90 | ≥ 70 | – |
| NC(=O)C(Cl)(CCCC(F)(F)F)S(=O)(=O)CCC(F)(F)F (stereo not shown) [(80)] | 100 | ≥ 90 | ≥ 70 | – |
| N#CC(CC(F)(F)C(F)(F)F)S(=O)(=O)CCC(F)(F)F (stereo not shown) [(2)] | 100 | ≥ 90 | ≥ 70 | – |
| N#CC(CCC(F)(F)C(F)(F)F)S(=O)(=O)CCC(F)(F)F (stereo not shown) [(3)] | 100 | ≥ 90 | ≥ 70 | – |
| CC(C)(C)OC(=O)C(CCC(F)(F)C(F)(F)F)S(=O)(=O)CCC(F)(F)F (stereo not shown) [(25)] | – | ≥ 90 | ≥ 70 | – |
| COC(=O)C(C)(CCC(F)(F)C(F)(F)F)SCCC(F)(F)F (stereo not shown) [(68)] | 100 | ≥ 90 | ≥ 70 | – |
| CC(C#N)(CCC(F)(F)C(F)(F)F)S(=O)(=O)CCC(F)(F)C(F)(F)F (stereo not shown) [(13)] | 100 | ≥ 90 | ≥ 70 | – |
| N#CC(CCC(F)(F)C(F)(F)F)S(=O)(=O)CCC(F)(F)C(F)(F)F (stereo not shown) [(8)] | 100 | ≥ 90 | ≥ 70 | – |
| COC(=O)C(C)(CCCC(F)(F)F)S(=O)(=O)CCC(F)(F)F (stereo not shown) [(44)] | 100 | – | ≥ 70 | – |
| COC(=O)C(F)(CCC(F)(F)C(F)(F)F)S(=O)(=O)CCC(F)(F)C(F)(F)C(F)(F)F (stereo not shown) [(66)] | – | – | – | pest or weed control at 500 ppm ([3]; 24 h): ≥ 70% |
| NC(=O)C(F)(CCC(F)(F)C(F)(F)F)S(=O)(=O)CCC(F)(F)F (stereo not shown) [(64)] | 100 | – | ≥ 70 | – |
| COC(=O)C(Cl)(CCC(F)(F)C(F)(F)C(F)(F)F)S(=O)(=O)CCC(F)(F)F (stereo not shown) [(83)] | – | – | – | pest or weed control at 3.5 ppm [2]: ≥ 90% |
| COC(=O)C(CCC(F)(F)C(F)(F)C(F)(F)F)S(=O)(=O)CCC(F)(F)F (stereo not shown) [(82)] | – | – | – | pest or weed control at 3.5 ppm [2]: ≥ 90%; pest or weed control at 500 ppm ([3]; 24 h): ≥ 70% |
| COC(=O)C(CCCC(F)(F)F)S(=O)(=O)CCC(F)(F)F (stereo not shown) [(78)] | 100 | – | – | – |
| COC(=O)C(CCC(F)(F)F)S(=O)(=O)CCC(F)(F)C(F)(F)F (stereo not shown) [(92)] | – | ≥ 90 | – | – |
| COC(=O)C(CCCC(F)(F)C(F)(F)F)S(=O)(=O)CCC(F)(F)F (stereo not shown) [(101)] | 100 | – | ≥ 70 | – |
| N#CC(CCC(F)(F)C(F)(F)C(F)(F)C(F)(F)F)S(=O)(=O)CCC(F)(F)F (stereo not shown) [(7)] | – | – | – | pest or weed control at 500 ppm [1]: 100%; pest or weed control at 3.5 ppm [2]: ≥ 90% |
| COC(=O)C(CCC(F)(F)C(F)(F)F)S(=O)(=O)CCC(F)(F)C(F)(F)C(F)(F)F (stereo not shown) [(42)] | – | – | – | pest or weed control at 3.5 ppm [2]: ≥ 90% |
| CCCC(CCC(F)(F)C(F)(F)F)(C(=O)OC)S(=O)(=O)CCC(F)(F)F (stereo not shown) [(28)] | – | – | ≥ 70 | – |
| COC(=O)C(CCC(F)(F)C(F)(F)F)S(=O)(=O)CCC(F)(F)C(F)(F)F (stereo not shown) [(24)] | – | ≥ 90 | – | – |
| COC(=O)C(Cl)(CCCCC(F)(F)F)S(=O)(=O)CCC(F)(F)F (stereo not shown) [(99)] | – | – | ≥ 70 | – |
| CCCCCC(C#N)(CCC(F)(F)C(F)(F)F)S(=O)(=O)CCC(F)(F)F (stereo not shown) [(19)] | – | ≥ 90 | ≥ 70 | – |
| CCCCC(C#N)(CCC(F)(F)C(F)(F)F)S(=O)(=O)CCC(F)(F)F (stereo not shown) [(18)] | – | ≥ 90 | ≥ 70 | – |
| COC(=O)C(CCC(F)(F)C(F)(F)C(F)(F)F)S(=O)(=O)CCC(F)(F)C(F)(F)F (stereo not shown) [(51)] | – | – | – | pest or weed control at 3.5 ppm [2]: ≥ 90% |
